Measured values from US8268809B2, “Kinase inhibitors for preventing or treating pathogen infection and method of use thereof” (priority 2006, dated 2012).
“Also recorded” adds a separate entry of the source.

system: vaccinia virus; assay type: cell-based
For VACCINIA PLAQUE ASSAY 2 in this document: test concentration or dose not given here.

Compound	VACCINIA PLAQUE ASSAY 2	Class category of infected monolayers in plaque assay	Plaque phenotype due to drug treatment (FIGS. 1, 2, 4)	VACCINIA Plaque Assay
CCOC(=O)c1ccc(-c2n[nH]c3nc(-c4ccc(NC(C)=O)cc4)ccc23)cc1 [APcK-19]	SMALL PLAQUES	–	–	–
CC(=O)Nc1ccc(-c2ccc3c(-c4ccc(Br)c(F)c4)n[nH]c3n2)cc1 [APcK-20]	NO PLAQUES	–	–	–
CC(=O)Nc1ccc(-c2ccc3c(-c4ccc(Cl)cc4Cl)n[nH]c3n2)cc1 [APcK-26]	SMALL PLAQUES	Class III	pinpoint plaque formations; also recorded: pinpoint plaques	PINPOINT PLAQUES
CC(=O)Nc1ccc(-c2ccc3c(-c4ccc(Br)cc4)n[nH]c3n2)cc1 [APcK-27]	SMALL PLAQUES	Class III	pinpoint plaque formations; also recorded: pinpoint plaques	PINPOINT PLAQUES
CC(=O)Nc1ccc(-c2ccc3c(-c4ccc(C)c(F)c4)n[nH]c3n2)cc1 [APcK-28]	SMALL PLAQUES	–	–	–
COc1ccc(-c2n[nH]c3nc(-c4ccc(O)cc4OC)ccc23)cc1 [APcK-31]	SMALL PLAQUES	–	–	–
CCOC(=O)c1ccc(-c2ccc3c(-c4ccc(C(=O)OC)cc4)n[nH]c3n2)cc1 [APcK-32]	–	–	small plaque and large comets; also recorded: small plaques with large comets	LARGE COMETS
COc1ccc(-c2n[nH]c3nc(-c4ccc(C(=O)c5ccccc5)cc4)ccc23)cc1 [APcK-34]	–	–	small plaque and large comets; also recorded: small plaques with large comets	SMALL PLAQUES, LARGE COMETS
O=C(c1ccccc1)c1ccc(-c2ccc3c(-c4ccc(Cl)c(F)c4)n[nH]c3n2)cc1 [APcK-35]	NO PLAQUES	Class III	–	SMALL PLAQUES, NO COMETS
Cc1ccc(-c2n[nH]c3nc(-c4ccc(C(=O)c5ccccc5)cc4)ccc23)cc1F [APcK-37]	SMALL PLAQUES	–	–	–
O=C(c1ccccc1)c1ccc(-c2ccc3c(-c4ccc(Br)c(F)c4)n[nH]c3n2)cc1 [APcK-38]	NO PLAQUES	–	–	–
O=C(c1ccccc1)c1ccc(-c2ccc3c(-c4ccc(Br)cc4F)n[nH]c3n2)cc1 [APcK-39]	NO PLAQUES	–	–	–
CC(=O)Nc1cccc(-c2ccc3c(-c4ccc(Cl)cc4Cl)n[nH]c3n2)c1 [APcK-40]	PINPOINT PLAQUES	Class III	–	SLIGHTLY SMALLER PLAQUES
CC(=O)Nc1cccc(-c2ccc3c(-c4ccc(Br)cc4F)n[nH]c3n2)c1 [APcK-41]	NO PLAQUES	–	–	–
CC(=O)Nc1cccc(-c2ccc3c(-c4ccc(C#N)cc4)n[nH]c3n2)c1 [APcK-44]	PINPOINT PLAQUES	Class III	–	SMALL PLAQUES WITH COMETS
CCOC(=O)c1ccc(-c2ccc3c(-c4ccc(C(=O)OCC)cc4)n[nH]c3n2)cc1 [APcK-48]	SMALL PLAQUES	Class III	–	PINPOINT PLAQUES
CCOC(=O)c1ccc(-c2ccc3c(-c4ccc(Cl)c(F)c4)n[nH]c3n2)cc1 [APcK-49]	SMALL PLAQUES	–	–	–
CCOC(=O)c1ccc(-c2ccc3c(-c4ccc(C#N)cc4)n[nH]c3n2)cc1 [APcK-55]	NO PLAQUES	–	–	–
CCOC(=O)c1ccc(-c2n[nH]c3nc(-c4ccc5cc[nH]c5c4)ccc23)cc1 [APcK-58]	NO PLAQUES	–	–	–
COc1ccc(-c2n[nH]c3nc(-c4cccc(NC(C)=O)c4)ccc23)cc1 [APcK-101]	–	–	damaged monolayer	–
CC(=O)Nc1cccc(-c2ccc3c(-c4ccc(F)c(C)c4)n[nH]c3n2)c1 [APcK-102]	NO PLAQUES	Class III	–	SMALLER PLAQUES THAN WT
CC(=O)Nc1cccc(-c2ccc3c(-c4ccc(Cl)c(F)c4)n[nH]c3n2)c1 [APcK-104]	PINPOINT PLAQUES	Class III	–	SMALLER PLAQUES THAN WT. NO COMETS
CCOC(=O)c1ccc(-c2n[nH]c3nc(-c4cccc(NC(C)=O)c4)ccc23)cc1 [APcK-105]	PINPOINT PLAQUES	Class III	no pinpoint plaque formed; also recorded: no plaques	NO PLAQUES

Compound	VACCINIA PLAQUE ASSAY 2	Class category of infected monolayers in plaque assay	Plaque phenotype due to drug treatment (FIGS. 1, 2, 4)	VACCINIA Plaque Assay
CCOC(=O)c1ccc(-c2n[nH]c3nc(-c4cc(C)c(O)c(C)c4)ccc23)cc1 [APcK-106]	PINPOINT PLAQUES	Class III	–	SMALLER PLAQUES THAN WT
Cc1cc(-c2ccc3c(-c4ccc(Cl)c(F)c4)n[nH]c3n2)cc(C)c1O [APcK-107]	SMALLER PLAQUES THAN WT	Class II	–	SMALLER PLAQUES THAN WT
CCOC(=O)c1ccc(-c2n[nH]c3nc(-c4cc(OC)cc(OC)c4)ccc23)cc1 [APcK-108]	SMALL PLAQUES	Class III	pinpoint plaque formations; also recorded: pinpoint plaques	PINPOINT PLAQUES
COc1cc(OC)cc(-c2ccc3c(-c4ccc(F)c(C)c4)n[nH]c3n2)c1 [APcK-109]	SMALL PLAQUES, LARGE TAILS	Class II	–	SLIGHTLY SMALLER PLAQUES
COc1cc(OC)cc(-c2ccc3c(-c4ccc(F)cc4)n[nH]c3n2)c1 [APcK-110]	SMALL PLAQUES	Class II	–	SMALL PLAQUES, SEE LOTS OF SATELLITE PLAQUES
COc1cc(OC)cc(-c2ccc3c(-c4ccc(Cl)c(F)c4)n[nH]c3n2)c1 [APcK-111]	PINPOINT PLAQUES	Class III	pinpoint plaque formations; also recorded: pinpoint plaques	PINPOINT PLAQUES
NC(=O)c1cccc(-c2ccc3c(-c4ccc(F)cc4)n[nH]c3n2)c1 [APcK-115]	SMALL PLAQUES	–	–	–
O=C1NC(=O)/C(=C/c2ccc3nccnc3c2)S1 [AS-604240, reference compound]	PINPOINT PLAQUES	Class III	–	PINPOINT PLAQUES
O=C1NC(=O)/C(=C/c2ccc3c(c2)OC(F)(F)O3)S1 [AS-604850, reference compound]	NO PLAQUES	Class III	–	NO PLAQUES
CN1CCOc2cc(/C=C3\SC(=O)NC3=O)ccc21 [AS-605091, reference compound]	PINPOINT PLAQUES	Class III	–	SMALL PLAQUES
COc1ccccc1NS(=O)(=O)c1cccc(Nc2cc(-c3ccc(O)cc3)ncn2)c1 [Eph2_wbz 102]	no plaques	Class III	–	NO PLAQUES
COc1ccccc1NS(=O)(=O)c1cccc(Nc2cc(-c3ccc([N+](=O)[O-])cc3)ncn2)c1 [Eph2_wbz 103]	PINPOINT	Class III	–	NO PLAQUES
COc1ccccc1NS(=O)(=O)c1cccc(Nc2cc(-c3ccc(C(=O)O)cc3)ncn2)c1 [Eph2_wbz 104]	SLIGHTLY SMALLER PLAQUES	Class III	–	NO PLAQUES
COc1ccccc1NS(=O)(=O)c1cccc(Nc2cc(-c3ccc(OC(C)=O)cc3)ncn2)c1 [Eph2_wbz 105]	NO PLAQUES	Class III	small plaques with comets	SMALLER PLAQUES THAN WT
COc1ccccc1NS(=O)(=O)c1cccc(Nc2cc(-c3ccc(NC(C)=O)cc3)ncn2)c1 [Eph2_wbz 106]	SMALLER PLAQUES THAN WT	Class III	–	NO PLAQUES
COc1ccccc1NS(=O)(=O)c1cccc(Nc2cc(-c3ccc(C(F)(F)F)cc3)ncn2)c1 [Eph2_wbz 107]	SMALLER PLAQUES THAN WT	Class II	–	SMALLER PLAQUES THAN WT
COc1ccccc1NS(=O)(=O)c1cccc(Nc2cc(-c3ccc(C(C)=O)cc3)ncn2)c1 [Eph2_wbz 110]	PINPOINT	Class III	pinpoint plaque formations; also recorded: pinpoint plaques	PINPOINT PLAQUES
COc1cccc(-c2cc(Nc3cccc(S(=O)(=O)Nc4ccccc4OC)c3)ncn2)c1 [Eph2_wbz 112]	PINPOINT	Class III	–	SMALL PLAQUES
COc1ccccc1NS(=O)(=O)c1cccc(Nc2cc(-c3ccc(NC(=O)CCC(=O)O)cc3)ncn2)c1 [Eph2_wbz 117]	SMALL PLAQUES; COMETS?	Class III	–	NO PLAQUES
COc1ccccc1Nc1cc(-c2ccc(O)cc2)ncn1 [Eph2_wbz 202]	PINPOINT PLAQUES	Class III	–	PLAQUES SMALLER THAN WT, STILL SEE COMETS
COc1ccccc1Nc1cc(-c2ccc(NC(C)=O)cc2)ncn1 [Eph2_wbz 206]	SMALL PLAQUES	Class II	small plaques with comets	SMALL PLAQUES, COMETS?
COC(=O)c1ccc(-c2cc(Nc3ccccc3OC)ncn2)cc1OC [Eph2_wbz 211]	SLIGHTLY SMALLER PLAQUES	Class II	–	SMALL PLAQUES Comets?
